Columns and labels:
chickweed [1] = assay: Test Example 5: herbicidal effect by foliage application, plastic box (Table 20, symbol P); format: in vivo, common chickweed (Stellaria media); conditions: foliage application, 320 g/ha, evaluated three weeks after application
Outline: (§1)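 Sow seeds spot-wise in sterilized diluvial soil; cover with ~1.5 cm soil. Grow 14 days in greenhouse, 25° C. to 30° C. Spray foliage with emulsion diluted to predetermined amount. Rate effect after 3 weeks.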

barnyard grass [2] = assay: Test Example 4: herbicidal effect by soil treatment (Table 19, symbol H); format: in vivo, barnyard grass (Echinochloa crus-galli); conditions: amount of applied herbicide 320 g/ha
Outline: (§2)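 Applied as a water-diluted emulsion, the compound was sprayed onto soil covering newly sown seeds. Evaluation came three weeks after application, in a greenhouse held at 25° C. to 30° C.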

southern crabgrass [3] = assay: Test Example 4: herbicidal effect by soil treatment (Table 19, symbol F); format: in vivo, southern crabgrass (Digitaria ciliaris); conditions: amount of applied herbicide 320 g/ha
Outline: as §2

wild oat [4] = assay: Test Example 5: herbicidal effect by foliage application, plastic box (Table 20, symbol I); format: in vivo, wild oat (Avena fatua); conditions: foliage application, 320 g/ha, evaluated three weeks after application
Outline: as §1

windgrass [5] = assay: Test Example 4: herbicidal effect by soil treatment (Table 19, symbol L); format: in vivo, windgrass (Apera spica-venti); conditions: amount of applied herbicide 320 g/ha
Outline: as §2

lambsquarters [6] = assay: Test Example 5: herbicidal effect by foliage application, plastic box (Table 20, symbol O); format: in vivo, lambsquarters (Chenopodium album); conditions: foliage application, 320 g/ha, evaluated three weeks after application
Outline: as §1

velvetleaf [7] = assay: Test Example 4: herbicidal effect by soil treatment (Table 19, symbol M); format: in vivo, velvetleaf (Abutilon theophrasti); conditions: amount of applied herbicide 320 g/ha
Outline: as §2

rice flat sedge = assay: Test Example 3: herbicidal effect by foliage application, Wagner pot (Table 18, symbol E); format: in vivo, rice flat sedge (Cyperus iria); conditions: amount of applied herbicide 320 g/ha
Outline: (§3)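 Plants were sown in alluvial soil held under 0.1–0.5 cm standing water and grown 14 days in a greenhouse at 25–30 °C. An emulsifiable formulation, water-diluted to the set dose, was then sprayed onto the foliage, and effects were scored three weeks later using previously defined criteria.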

lambsquarters [8] = assay: Test Example 4: herbicidal effect by soil treatment (Table 19, symbol O); format: in vivo, lambsquarters (Chenopodium album); conditions: amount of applied herbicide 320 g/ha
Outline: as §2

Chinese sprangletop = assay: Test Example 3: herbicidal effect by foliage application, Wagner pot (Table 18, symbol D); format: in vivo, chinese sprangletop (Leptochloa chinensis); conditions: amount of applied herbicide 320 g/ha
Outline: as §3

blackgrass [9] = assay: Test Example 5: herbicidal effect by foliage application, plastic box (Table 20, symbol J); format: in vivo, blackgrass (Alopecurus myosuroides); conditions: foliage application, 320 g/ha, evaluated three weeks after application
Outline: as §1

blackgrass [10] = assay: Test Example 4: herbicidal effect by soil treatment (Table 19, symbol J); format: in vivo, blackgrass (Alopecurus myosuroides); conditions: amount of applied herbicide 320 g/ha
Outline: as §2

green foxtail [11] = assay: Test Example 5: herbicidal effect by foliage application, plastic box (Table 20, symbol G); format: in vivo, green foxtail (Setaria viridis); conditions: foliage application, 320 g/ha, evaluated three weeks after application
Outline: as §1

wild oat [12] = assay: Test Example 4: herbicidal effect by soil treatment (Table 19, symbol I); format: in vivo, wild oat (Avena fatua); conditions: amount of applied herbicide 320 g/ha
Outline: as §2

persian speedwell [13] = assay: Test Example 5: herbicidal effect by foliage application, plastic box (Table 20, symbol R); format: in vivo, Persian speedwell (Veronica persica); conditions: foliage application, 320 g/ha, evaluated three weeks after application
Outline: as §1

redroot pigweed [14] = assay: Test Example 5: herbicidal effect by foliage application, plastic box (Table 20, symbol N); format: in vivo, redroot pigweed (Amaranthus retroflexus); conditions: foliage application, 320 g/ha, evaluated three weeks after application
Outline: as §1

Italian ryegrass [15] = assay: Test Example 5: herbicidal effect by foliage application, plastic box (Table 20, symbol K); format: in vivo, Italian ryegrass (Lolium multiflorum); conditions: foliage application, 320 g/ha, evaluated three weeks after application
Outline: as §1

chickweed [16] = assay: Test Example 4: herbicidal effect by soil treatment (Table 19, symbol P); format: in vivo, common chickweed (Stellaria media); conditions: amount of applied herbicide 320 g/ha
Outline: as §2

green foxtail [17] = assay: Test Example 4: herbicidal effect by soil treatment (Table 19, symbol G); format: in vivo, green foxtail (Setaria viridis); conditions: amount of applied herbicide 320 g/ha
Outline: as §2

southern crabgrass [18] = assay: Test Example 5: herbicidal effect by foliage application, plastic box (Table 20, symbol F); format: in vivo, southern crabgrass (Digitaria ciliaris); conditions: foliage application, 320 g/ha, evaluated three weeks after application
Outline: as §1

barnyard grass [19] = assay: Test Example 5: herbicidal effect by foliage application, plastic box (Table 20, symbol H); format: in vivo, barnyard grass (Echinochloa crus-galli); conditions: foliage application, 320 g/ha, evaluated three weeks after application
Outline: as §1

velvetleaf [20] = assay: Test Example 5: herbicidal effect by foliage application, plastic box (Table 20, symbol M); format: in vivo, velvetleaf (Abutilon theophrasti); conditions: foliage application, 320 g/ha, evaluated three weeks after application
Outline: as §1

redroot pigweed [21] = assay: Test Example 4: herbicidal effect by soil treatment (Table 19, symbol N); format: in vivo, redroot pigweed (Amaranthus retroflexus); conditions: amount of applied herbicide 320 g/ha
Outline: as §2

persian speedwell [22] = assay: Test Example 4: herbicidal effect by soil treatment (Table 19, symbol R); format: in vivo, Persian speedwell (Veronica persica); conditions: amount of applied herbicide 320 g/ha
Outline: as §2

windgrass [23] = assay: Test Example 5: herbicidal effect by foliage application, plastic box (Table 20, symbol L); format: in vivo, windgrass (Apera spica-venti); conditions: foliage application, 320 g/ha, evaluated three weeks after application
Outline: as §1

barnyard grass [24] = assay: Test Example 3: herbicidal effect by foliage application, Wagner pot (Table 18, symbol H); format: in vivo, barnyard grass (Echinochloa crus-galli); conditions: amount of applied herbicide 320 g/ha
Outline: as §3

Italian ryegrass [25] = assay: Test Example 4: herbicidal effect by soil treatment (Table 19, symbol K); format: in vivo, Italian ryegrass (Lolium multiflorum); conditions: amount of applied herbicide 320 g/ha
Outline: as §2

## CCCCOc1cccc(-c2sc3ccc(F)cc3c2-c2c(OC(=O)CCC)c(C)nn(C)c2=O)c1 [2-220]
Chickweed [1]
  herbicidal effect on P: chickweed (criteria 0-5): 4 (Herbicidal rate of 70% or more and less than 90%)
Barnyard grass [2]
  H: barnyard grass, herbicidal effect rating: 1 (Herbicidal rate of 5% or more and less than 20%)
Southern crabgrass [3]
  F: southern crabgrass, herbicidal effect rating: 0 (Herbicidal rate of 5% or less (almost no effect))
Wild oat [4]
  herbicidal effect on I: wild oat (criteria 0-5): 0 (Herbicidal rate of 5% or less (almost no effect))
Windgrass [5]
  L: windgrass, herbicidal effect rating: 0 (Herbicidal rate of 5% or less (almost no effect))
Lambsquarters [6]
  herbicidal effect on O: lambsquarters (criteria 0-5): 3 (Herbicidal rate of 40% or more and less than 70%)
Velvetleaf [7]
  M: velvetleaf, herbicidal effect rating: 0 (Herbicidal rate of 5% or less (almost no effect))
Rice flat sedge
  herbicidal effect on E: rice flat sedge: 3 (Herbicidal rate of 40% or more and less than 70%)
Lambsquarters [8]
  O: lambsquarters, herbicidal effect rating: 0 (Herbicidal rate of 5% or less (almost no effect))
Chinese sprangletop
  herbicidal effect on D: Chinese sprangletop: 3 (Herbicidal rate of 40% or more and less than 70%)
Blackgrass [9]
  herbicidal effect on J: blackgrass (criteria 0-5): 0 (Herbicidal rate of 5% or less (almost no effect))
Blackgrass [10]
  J: blackgrass, herbicidal effect rating: 0 (Herbicidal rate of 5% or less (almost no effect))
Green foxtail [11]
  herbicidal effect on G: green foxtail (criteria 0-5): 3 (Herbicidal rate of 40% or more and less than 70%)
Wild oat [12]
  I: wild oat, herbicidal effect rating: 0 (Herbicidal rate of 5% or less (almost no effect))
Persian speedwell [13]
  herbicidal effect on R: persian speedwell (criteria 0-5): 4 (Herbicidal rate of 70% or more and less than 90%)
Redroot pigweed [14]
  herbicidal effect on N: redroot pigweed (criteria 0-5): 3 (Herbicidal rate of 40% or more and less than 70%)
Italian ryegrass [15]
  herbicidal effect on K: Italian ryegrass (criteria 0-5): 0 (Herbicidal rate of 5% or less (almost no effect))
Chickweed [16]
  P: chickweed, herbicidal effect rating: 0 (Herbicidal rate of 5% or less (almost no effect))
Green foxtail [17]
  G: green foxtail, herbicidal effect rating: 0 (Herbicidal rate of 5% or less (almost no effect))
Southern crabgrass [18]
  herbicidal effect on F: southern crabgrass (criteria 0-5): 3 (Herbicidal rate of 40% or more and less than 70%)
Barnyard grass [19]
  herbicidal effect on H: barnyard grass (criteria 0-5): 3 (Herbicidal rate of 40% or more and less than 70%)
Velvetleaf [20]
  herbicidal effect on M: velvetleaf (criteria 0-5): 1 (Herbicidal rate of 5% or more and less than 20%)
Redroot pigweed [21]
  N: redroot pigweed, herbicidal effect rating: 4 (Herbicidal rate of 70% or more and less than 90%)
Persian speedwell [22]
  R: persian speedwell, herbicidal effect rating: 0 (Herbicidal rate of 5% or less (almost no effect))
Windgrass [23]
  herbicidal effect on L: windgrass (criteria 0-5): 0 (Herbicidal rate of 5% or less (almost no effect))
Barnyard grass [24]
  herbicidal effect on H: barnyard grass: 5 (Herbicidal rate of 90% or more (almost completely withered))
Italian ryegrass [25]
  K: Italian ryegrass, herbicidal effect rating: 0 (Herbicidal rate of 5% or less (almost no effect))

Reference: patent US20230085307A1, “PYRIDAZINONE COMPOUND AND HERBICIDE” (NISSAN CHEMICAL CORPORATION, priority 2019, published 2023)
